These results are taken from US9926324B2, “Heteroaromatic compounds as PI3 kinase modulators and methods of use” (Calitor Sciences, LLC, priority 2012, dated 2018).

Series [1] is described as follows: Pharmacokinetic profiles in dogs after intravenous and oral administration. It counts as in vivo. Particulars: Dog; for F: iv dose 1 mg/kg, oral dose generally 10 mg/kg; for Clearance (CL) / AUC(0-t) / half-life / Vd: iv dosing 1 mg/kg; for AUC(0-t) / half-life / Vd: plasma; for Vd: read-out: Vss. As for the experimental part:
(§1) The compounds disclosed herein are assessed in pharmacokinetic studies in mice, rats, dogs or monkeys. The compounds are administered as a water solution, 2% HPMC+1% TWEEN® 80 in water solution, 5% DMSO+5% solutol in saline, 4% MC suspension or capsule. For the intravenous administration, the animals are generally given at 1 or 2 mg/kg dose. For the oral (p.o.) dosing, mice and rats are generally given 5 or 10 mg/kg dose, and dogs and monkeys are generally given 10 mg/kg dose. The blood samples (0.3 mL) are drawn at 0.25, 0.5, 1.0, 2.0, 3.0, 4.0, 6.0, 8.0, 12 and 24 h time points or 0.083, 0.25, 0.5, 1.0, 2.0, 4.0, 6.0, 8.0 and 24 h time points and centrifuged at 3,000 or 4000 rpm for 2 to 10 min. The plasma solutions are collected, stored at −20° C. or −70° C. until analyzed by LC/MS/MS as described above.

For a further series, the target named is T1, PI3K (p110δ/p85α) (h) (Homo sapiens, UniProt O00329).
T1 construct: purchased Millipore UK Ltd (assay service)
T1 sequence (O00329 whole entry): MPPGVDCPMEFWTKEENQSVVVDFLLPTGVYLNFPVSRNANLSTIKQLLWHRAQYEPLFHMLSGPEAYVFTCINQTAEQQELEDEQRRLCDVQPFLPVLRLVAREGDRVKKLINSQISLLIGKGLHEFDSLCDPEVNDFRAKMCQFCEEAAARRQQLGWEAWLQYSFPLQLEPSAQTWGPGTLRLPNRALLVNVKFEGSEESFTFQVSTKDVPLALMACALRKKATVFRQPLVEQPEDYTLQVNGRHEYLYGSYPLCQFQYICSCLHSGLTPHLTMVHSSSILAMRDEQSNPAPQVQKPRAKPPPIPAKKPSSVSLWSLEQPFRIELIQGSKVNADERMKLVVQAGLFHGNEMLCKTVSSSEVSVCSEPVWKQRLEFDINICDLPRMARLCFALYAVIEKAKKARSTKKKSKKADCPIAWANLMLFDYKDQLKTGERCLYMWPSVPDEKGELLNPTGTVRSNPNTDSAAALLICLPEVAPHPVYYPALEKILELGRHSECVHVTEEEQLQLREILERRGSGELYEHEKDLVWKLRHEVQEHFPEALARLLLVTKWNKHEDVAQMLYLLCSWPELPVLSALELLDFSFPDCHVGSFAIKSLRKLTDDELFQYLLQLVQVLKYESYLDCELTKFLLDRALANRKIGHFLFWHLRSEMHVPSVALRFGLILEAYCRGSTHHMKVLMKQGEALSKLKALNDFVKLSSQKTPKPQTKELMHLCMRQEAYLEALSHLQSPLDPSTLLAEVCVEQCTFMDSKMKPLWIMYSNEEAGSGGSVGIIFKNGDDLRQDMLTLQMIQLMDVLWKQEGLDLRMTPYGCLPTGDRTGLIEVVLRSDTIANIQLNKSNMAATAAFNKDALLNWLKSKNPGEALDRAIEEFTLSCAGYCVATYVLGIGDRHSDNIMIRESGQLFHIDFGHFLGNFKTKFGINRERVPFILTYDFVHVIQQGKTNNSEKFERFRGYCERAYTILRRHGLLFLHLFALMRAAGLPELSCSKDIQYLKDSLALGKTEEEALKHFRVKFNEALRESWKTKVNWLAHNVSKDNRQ
T1 sequence (P27986 whole entry partner): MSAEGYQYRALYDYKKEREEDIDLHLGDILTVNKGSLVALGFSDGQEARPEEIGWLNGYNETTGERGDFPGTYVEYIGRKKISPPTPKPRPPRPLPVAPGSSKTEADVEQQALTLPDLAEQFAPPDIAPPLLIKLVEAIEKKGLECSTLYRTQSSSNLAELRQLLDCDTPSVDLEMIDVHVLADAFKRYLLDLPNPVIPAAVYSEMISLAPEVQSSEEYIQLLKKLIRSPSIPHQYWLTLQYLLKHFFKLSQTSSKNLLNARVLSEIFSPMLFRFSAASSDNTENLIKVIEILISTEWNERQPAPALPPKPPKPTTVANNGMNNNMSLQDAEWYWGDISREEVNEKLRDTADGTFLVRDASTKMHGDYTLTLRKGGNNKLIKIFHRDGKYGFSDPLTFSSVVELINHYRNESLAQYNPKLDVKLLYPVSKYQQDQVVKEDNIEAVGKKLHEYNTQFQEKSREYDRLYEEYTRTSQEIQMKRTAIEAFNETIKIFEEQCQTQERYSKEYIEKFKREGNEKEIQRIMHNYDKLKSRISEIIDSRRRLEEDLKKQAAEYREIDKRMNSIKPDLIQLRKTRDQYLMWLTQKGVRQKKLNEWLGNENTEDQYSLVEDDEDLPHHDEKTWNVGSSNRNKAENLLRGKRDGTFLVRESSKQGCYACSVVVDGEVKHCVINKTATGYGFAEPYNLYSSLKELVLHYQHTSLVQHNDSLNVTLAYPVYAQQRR
Briefly: PI3K p110δ/p85α (h) non-radioactive HTRF assay. It is filed as biochemical. As for the experimental part: (§2) PI3K (p110δ/p85α) (h) is incubated in assay buffer containing 10 μM phosphatidylinositol-4,5-bisphosphate and MgATP (concentration as required). The reaction is initiated by the addition of the MgATP mix. After incubation for 30 minutes at room temperature, the reaction is stopped by the addition of stop solution containing EDTA and biotinylated phosphatidylinositol-3,4,5-trisphosphate. Finally, detection buffer is added, which contains europium-labelled anti-GST monoclonal antibody, GST-tagged GRP1 PH domain and streptavidin-allophycocyanin. The plate is then read in timeresolved fluorescence mode and the homogenous time-resolved fluorescence (HTRF) signal is determined according to the formula HTRF=10000×(Em665 nm/Em620 nm).
(§3) The kinase assays described herein were performed at Millipore UK Ltd, Dundee Technology Park, Dundee DD2 1SW, UK.

Series [2] in a line: Pharmacokinetic profiles in rats after intravenous and oral administration. Particulars: for F: oral dose generally 5 or 10 mg/kg; for AUC(0-t) / half-life / Vd: rat, plasma; for Vd: read-out: Vss. It is filed as in vivo. The essentials:
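Mice, rats, dogs or monkeys dosed i.v. at 1 or 2 mg/kg, or orally at 5 or 10 mg/kg (rodents) or 10 mg/kg (dogs, monkeys), as solution, suspension or capsule. Plasma sampled from 0.083 or 0.25 h up to 24 h, analysed by LC/MS/MS.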

The nature of series [3]: Pharmacokinetic profiles in monkeys after intravenous and oral administration. It is filed as in vivo. The settings on record: Monkey; for F: iv dose 1 mg/kg, oral dose generally 10 mg/kg; for Cl/F / AUC(0-t) / half-life / Vd: iv dosing 1 mg/kg; for AUC(0-t) / half-life / Vd: plasma; for Vd: read-out: Vss. As for the experimental part:
as §1

Series [4] is described as follows: Compound stability in rat liver microsomes. It counts as in vitro ADME. Particulars: for Rat T1/2 / half-life at 5 μM: rat liver microsomes 0.5 mg protein/mL, compound 5 μM, NADPH 1.0 mM, 37° C.; for half-life at 5 μM / CLint scaled at 5 μM: pH 7.4; for half-life at 5 μM: read-out: Rat T1/2; for CLint scaled at 5 μM: rat liver microsomes, in vivo CLint extrapolated. The procedure, abridged:
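Compounds at 5 μM were incubated with human or rat liver microsomes (0.5 mg protein/mL) and 1.0 mM NADPH in 100 mM phosphate pH 7.4 (0.05% DMSO) at 37 °C, sampled 0–60 min. Remaining parent, quantified by LC/MS/MS as % of zero time, gave extrapolated CLint.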

In a further series the target is T2, PI3K p110β/p85α (h) (Homo sapiens, UniProt P42338).
T2 construct: purchased Millipore UK Ltd (assay service)
T2 sequence (P42338 whole entry): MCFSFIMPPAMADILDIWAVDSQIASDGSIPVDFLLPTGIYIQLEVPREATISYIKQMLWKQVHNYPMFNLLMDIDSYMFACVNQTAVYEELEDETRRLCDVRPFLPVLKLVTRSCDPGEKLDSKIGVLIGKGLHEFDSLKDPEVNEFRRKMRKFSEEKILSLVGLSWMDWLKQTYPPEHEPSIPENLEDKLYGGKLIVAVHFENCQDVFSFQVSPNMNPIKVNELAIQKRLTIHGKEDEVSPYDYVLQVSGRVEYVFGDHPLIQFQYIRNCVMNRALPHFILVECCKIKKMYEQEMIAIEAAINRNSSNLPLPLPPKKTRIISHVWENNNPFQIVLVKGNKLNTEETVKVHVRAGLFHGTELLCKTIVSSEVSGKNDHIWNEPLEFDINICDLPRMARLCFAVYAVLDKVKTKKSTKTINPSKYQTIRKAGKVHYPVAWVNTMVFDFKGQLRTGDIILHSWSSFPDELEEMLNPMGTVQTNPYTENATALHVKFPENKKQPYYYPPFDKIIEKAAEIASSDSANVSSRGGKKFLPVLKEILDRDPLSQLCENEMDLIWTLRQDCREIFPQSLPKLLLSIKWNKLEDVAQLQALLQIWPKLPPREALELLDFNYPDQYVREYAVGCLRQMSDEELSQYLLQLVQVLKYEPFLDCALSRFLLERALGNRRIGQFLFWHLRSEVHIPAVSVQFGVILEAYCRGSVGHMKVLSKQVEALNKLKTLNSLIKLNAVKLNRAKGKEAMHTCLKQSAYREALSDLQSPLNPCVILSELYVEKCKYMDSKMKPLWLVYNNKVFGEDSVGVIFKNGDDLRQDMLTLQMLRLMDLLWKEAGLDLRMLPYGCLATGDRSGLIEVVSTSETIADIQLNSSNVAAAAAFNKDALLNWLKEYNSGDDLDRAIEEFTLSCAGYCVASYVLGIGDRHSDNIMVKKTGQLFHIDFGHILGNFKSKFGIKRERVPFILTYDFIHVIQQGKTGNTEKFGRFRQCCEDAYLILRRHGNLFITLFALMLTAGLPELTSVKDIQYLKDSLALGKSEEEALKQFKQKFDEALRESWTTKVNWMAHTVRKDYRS
T2 sequence (P27986 whole entry partner): as the sequence (P27986 whole entry partner) above
Briefly: PI3K p110β/p85α (h) non-radioactive HTRF assay. It is filed as biochemical. As for the experimental part: as §2, with “(p110β/p85α)” for “(p110δ/p85α)”
as §3

The target in the next series is T3, PI3K p110α/p85α (h) (Homo sapiens, UniProt P42336).
T3 construct: purchased Millipore UK Ltd (assay service)
T3 sequence (P42336 whole entry): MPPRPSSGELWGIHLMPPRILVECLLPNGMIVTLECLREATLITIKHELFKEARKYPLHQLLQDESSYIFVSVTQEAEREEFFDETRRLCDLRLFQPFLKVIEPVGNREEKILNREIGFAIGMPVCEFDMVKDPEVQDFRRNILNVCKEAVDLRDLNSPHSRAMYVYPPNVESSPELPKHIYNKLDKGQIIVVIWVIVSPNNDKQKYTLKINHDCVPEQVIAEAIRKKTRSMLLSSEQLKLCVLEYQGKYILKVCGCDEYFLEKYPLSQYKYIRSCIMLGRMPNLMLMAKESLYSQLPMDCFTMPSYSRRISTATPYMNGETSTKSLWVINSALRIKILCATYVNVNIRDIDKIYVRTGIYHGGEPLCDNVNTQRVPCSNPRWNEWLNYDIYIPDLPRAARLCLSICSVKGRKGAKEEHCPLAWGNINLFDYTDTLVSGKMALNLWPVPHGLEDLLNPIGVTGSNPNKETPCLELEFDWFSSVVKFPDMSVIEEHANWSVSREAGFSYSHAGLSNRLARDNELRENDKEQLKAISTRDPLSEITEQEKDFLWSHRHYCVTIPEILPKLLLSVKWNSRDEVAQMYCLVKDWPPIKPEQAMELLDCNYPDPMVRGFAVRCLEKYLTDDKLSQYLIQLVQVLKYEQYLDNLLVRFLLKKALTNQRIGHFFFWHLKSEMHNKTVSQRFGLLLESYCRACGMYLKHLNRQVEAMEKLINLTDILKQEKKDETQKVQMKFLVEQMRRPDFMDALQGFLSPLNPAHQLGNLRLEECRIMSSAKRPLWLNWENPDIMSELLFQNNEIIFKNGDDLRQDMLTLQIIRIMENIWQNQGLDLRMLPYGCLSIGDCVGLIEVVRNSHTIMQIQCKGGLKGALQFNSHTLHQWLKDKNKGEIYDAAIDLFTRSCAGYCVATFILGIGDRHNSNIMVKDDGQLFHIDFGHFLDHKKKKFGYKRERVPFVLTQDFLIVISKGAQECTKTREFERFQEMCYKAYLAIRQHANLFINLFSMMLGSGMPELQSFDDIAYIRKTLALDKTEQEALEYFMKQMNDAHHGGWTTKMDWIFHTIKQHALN
T3 sequence (P27986 whole entry partner): as the sequence (P27986 whole entry partner) above
The series is described as follows: PI3K p110α/p85α (h) non-radioactive HTRF assay. It counts as biochemical. As for the experimental part: as §2, with “p110α/p85α” for “(p110δ/p85α)”, “phosphatidylinositol 4,5-bisphosphate” for “phosphatidylinositol-4,5-bisphosphate”, “ATP solution.” for “MgATP mix.”, “streptavidin allophycocyanin.” for “streptavidin-allophycocyanin.”
as §3

On to `COc1ncc(-c2ccc3ncc(C#CCO)n3n2)cc1NS(=O)(=O)c1ccc(F)cc1F` [Ex. 9, 2,4-difluoro-N-(5-(3-(3-hydroxyprop-1-yn-1-yl)imidazo[1,2-b]pyridazin-6-yl)-2-methoxypyridin-3-yl)benzenesulfonamide], for which, in series [1], the F is 44.2%, the “Clearance (CL)” value came to 6.17 mL/min/kg, the AUC(0-t) worked out at 2750 ng·h/mL and the half-life was 0.73 h. Also, the Vd in series [1] stood at 0.31 L/kg. Also, the IC50 at PI3K (p110δ/p85α) (h) was 2 nM. This compound also registered a F in series [2] (iv dose 1 mg/kg) of 104.2%. Further, in series [2] (iv dosing 1 mg/kg), the Cl/F was 2.33 mL/min/kg, the AUC(0-t) is 7490 ng·h/mL, the half-life is 4.1 h and the Vd worked out at 0.37 L/kg. Further, in series [3], the F is recorded as 27.3%, the Cl/F was 7.5 mL/min/kg, the AUC(0-t) is 2370 ng·h/mL and the half-life is 3.59 h. In addition, the Vd in series [3] is 0.39 L/kg. In addition, the “Rat T1/2” value in series [4] was “∞”. Besides, on PI3K p110β/p85α (h), the 50% inhibitory concentration (IC50) was 38 nM. On PI3K p110α/p85α (h), the IC50 came to 2 nM.
On to `COc1ncc(-c2ccc3ncc(C#CCO)n3c2)cc1NS(=O)(=O)c1ccc(F)cc1F` [Ex. 15, 2,4-difluoro-N-(5-(3-(3-hydroxyprop-1-yn-1-yl)imidazo[1,2-a]pyridin-6-yl)-2-methoxypyridin-3-yl)benzenesulfonamide], for which, in series [1], the F was 108.5%, the “Clearance (CL)” value worked out at 7.67 mL/min/kg, the AUC(0-t) turned out to be 2170 ng·h/mL and the half-life was 0.74 h. The Vd in series [1] is 0.37 L/kg. Moreover, at PI3K (p110δ/p85α) (h), the IC50 turned out to be 1 nM. For the same compound, the F in series [2] (iv dose 2 mg/kg) amounted to 97.0%. For the same compound, in series [2] (iv dosing 2 mg/kg), the Cl/F was 1.3 mL/min/kg, the AUC(0-t) was 25600 ng·h/mL, the half-life was 3.14 h and the Vd worked out at 0.22 L/kg. Moreover, in series [3], the F is listed as 55.4%, the Cl/F was determined as 5.33 mL/min/kg, the AUC(0-t) amounted to 3200 ng·h/mL and the half-life is 5.89 h. In addition, the Vd in series [3] was determined as 0.76 L/kg. For the same compound, in series [4], the half-life at 5 μM is 2.01 h and the CLint scaled at 5 μM is 20.6 mL/min/kg. At PI3K p110β/p85α (h), the IC50 was found to be 27 nM. For the same compound, the IC50 on PI3K p110α/p85α (h) was found to be 2 nM.
Consider `COc1ncc(-c2ccc3ncc(C#CC(C)O)n3c2)cc1NS(=O)(=O)c1ccc(F)cc1F` (centres unmarked) [Ex. 16, 2,4-difluoro N (5 (3 (3 hydroxybut-1-yn-1-yl)imidazo[1,2-a]pyridin-6-yl)-2-methoxypyridin-3-yl)benzenesulfonamide], for which the IC50 at PI3K (p110δ/p85α) (h) amounted to 3 nM. The F in series [2] (iv dose 1 mg/kg) was 99.77%. Further, in series [2] (iv dosing 1 mg/kg), the Cl/F was determined as 1.67 mL/min/kg, the AUC(0-t) worked out at 19400 ng·h/mL, the half-life is 2.65 h and the Vd came to 0.35 L/kg. Further, in series [4], the half-life at 5 μM amounted to 0.894 h and the CLint scaled at 5 μM is 46.3 mL/min/kg. For the same compound, the IC50 at PI3K p110β/p85α (h) was found to be 66 nM. Also, the IC50 at PI3K p110α/p85α (h) was determined as 2 nM.
Regarding `COc1ncc(-c2ccc3ncc(C#N)n3n2)cc1NS(=O)(=O)c1ccc(F)cc1F` [Ex. 24, N-(5-(3-cyanoimidazo[1,2-b]pyridazin-6-yl)-2-methoxypyridin-3-yl)-2,4-difluorobenzenesulfonamide], the F in series [1] was 108.5%; in series [2] (iv dose 2 mg/kg), 108%; in series [3] it was 69.8%. Moreover, the “Clearance (CL)” value in series [1] was determined as 9 mL/min/kg. For the same compound, the values for the area under the curve AUC(0-t) in series [1], in series [2] (iv dosing 2 mg/kg) and in series [3] were 1840 ng·h/mL, 8400 ng·h/mL and 4640 ng·h/mL, respectively. Moreover, the results for the half-life in series [1], in series [2] (iv dosing 2 mg/kg) and in series [3] were 0.57 h, 3.06 h and 6.05 h, respectively. Moreover, the Vd in series [1] was 0.37 L/kg; in series [2] (iv dosing 2 mg/kg), 0.55 L/kg; in series [3], 0.64 L/kg. In addition, the IC50 at PI3K (p110δ/p85α) (h) was found to be 3 nM; at PI3K p110β/p85α (h), 26 nM; on PI3K p110α/p85α (h) it was 2 nM. Also, the Cl/F is 4 mL/min/kg in series [2] (iv dosing 2 mg/kg) and 3.67 mL/min/kg in series [3]. Besides, the “Rat T1/2” value in series [4] is “∞”.
